Where two headings read alike, the source gives them in different places.
Columns and labels:
human CB2 receptors = target: T1, human CB2 receptors (Homo sapiens, UniProt P34972); test: human CB2 radioligand binding assay ([3H]CP-55,940 competition)
T1 construct: expressed in transfected cells; host or cells: HEK293

rat CB2 = target: T2, rat CB2 (Rattus norvegicus, UniProt Q9QZN9); test: rat CB2 radioligand binding assay ([3H]CP-55,940 competition); design: expressed in transfected cells; host or cells: HEK293
T2 sequence (Q9QZN9 1-360): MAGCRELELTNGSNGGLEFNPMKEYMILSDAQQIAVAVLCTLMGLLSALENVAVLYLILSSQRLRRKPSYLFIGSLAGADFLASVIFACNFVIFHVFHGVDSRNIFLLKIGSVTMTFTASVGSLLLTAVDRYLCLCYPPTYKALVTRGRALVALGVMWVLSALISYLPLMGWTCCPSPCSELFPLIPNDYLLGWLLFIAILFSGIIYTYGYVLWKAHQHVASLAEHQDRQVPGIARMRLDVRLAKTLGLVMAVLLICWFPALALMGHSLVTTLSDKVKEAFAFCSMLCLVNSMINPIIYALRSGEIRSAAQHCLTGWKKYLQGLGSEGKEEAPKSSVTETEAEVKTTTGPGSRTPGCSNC

[1] = HEK293 membranes, 0.5 nM [3H]CP-55,940, read-out: human CB2 (Ki)

T1 sequence (P34972 whole entry): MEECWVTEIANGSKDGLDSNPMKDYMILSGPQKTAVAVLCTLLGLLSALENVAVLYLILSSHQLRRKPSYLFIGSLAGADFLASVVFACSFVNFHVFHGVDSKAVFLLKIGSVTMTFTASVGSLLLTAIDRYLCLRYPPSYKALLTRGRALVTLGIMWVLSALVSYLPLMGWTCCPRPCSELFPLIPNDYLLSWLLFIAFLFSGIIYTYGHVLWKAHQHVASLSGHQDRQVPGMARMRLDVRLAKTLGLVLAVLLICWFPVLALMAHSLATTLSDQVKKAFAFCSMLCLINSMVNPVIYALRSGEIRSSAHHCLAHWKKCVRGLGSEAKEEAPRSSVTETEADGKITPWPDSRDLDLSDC

With `CCCCc1cn(C2CCC2)s/c1=N\C(=O)c1cc(Cl)ccc1OC` [Example 3, N-[(5Z)-4-butyl-2-cyclobutylisothiazol-5(2H)-ylidene]-5-chloro-2-methoxybenzamide] as the compound, how does the Ki (human CB2 receptors; [1]) read?
Its Ki is 410 nM.

What about the Ki (rat CB2) of the same compound?
The Ki was 11 nM.

With `CCCCc1c(C)n(C)s/c1=N\C(=O)C12CC3CC(CC1C3)C2` [Example 4, N-[(5Z)-4-butyl-2,3-dimethylisothiazol-5(2H)-ylidene]hexahydro-2,5-methanopentalene-3a(1H)-carboxamide] as the compound, how does the Ki (human CB2 receptors) read?
Its Ki is 3.8 nM.

What about the Ki (rat CB2) of the same compound?
The Ki was 3.2 nM.

What does the source list for `CCCCc1cn(C2(C)CCC2)s/c1=N\C(=O)c1cc(Cl)ccc1OC` [Example 5, N-[(5Z)-4-butyl-2-(1-methylcyclobutyl)isothiazol-5(2H)-ylidene]-5-chloro-2-methoxybenzamide]?
Ki (human CB2 receptors): 30 nM; Ki (rat CB2): 2.2 nM

Which results are given for `CCCC1CCc2c(/c(=N/C(=O)c3cc(Cl)ccc3OC)sn2C(C)(C)C)C1` (centres unmarked) [Example 9, N-[(3Z)-1-tert-butyl-5-propyl-4,5,6,7-tetrahydro-2,1-benzisothiazol-3(1H)-ylidene]-5-chloro-2-methoxybenzamide]?
Ki (human CB2 receptors): 0.9 nM; Ki (rat CB2): 0.42 nM

With `COc1ccc(Cl)cc1C(=O)/N=c1\sn(C(C)(C)C)c2c1CC1(CC2)OCCO1` [Example 10, N-[(3Z)-1-tert-butyl-1,4,6,7-tetrahydro-3H-spiro[2,1-benzisothiazole-5,2′-[1,3]dioxolan]-3-ylidene]-5-chloro-2-methoxybenzamide] as the compound, how does the Ki (human CB2 receptors; [1]) read?
Its Ki is 190 nM.

What about the Ki (rat CB2) of the same compound?
The Ki was 42 nM.

For `COCCc1cn(C(C)(C)C)s/c1=N\C(=O)c1cc(Cl)ccc1OC` [Example 11, N-[(5Z)-2-tert-butyl-4-(2-methoxyethyl)isothiazol-5(2H)-ylidene]-5-chloro-2-methoxybenzamide], which Ki (rat CB2) is on record?
Its Ki is 29 nM.

How did the Ki (human CB2 receptors; [1]) turn out when `COc1ccc(Cl)cc1C(=O)/N=c1\sn(C(C)(C)C)cc1CCN1CCOCC1` [Example 12, N-[(5Z)-2-tert-butyl-4-(2-morpholin-4-ylethyl)isothiazol-5(2H)-ylidene]-5-chloro-2-methoxybenzamide] was run?
The Ki was 230 nM.

What about the Ki (rat CB2) of the same compound?
The Ki was 12 nM.

With `CCC1CC1c1cn(C(C)(C)C)s/c1=N\C(=O)c1cc(Cl)ccc1OC` (centres unmarked) [Example 27, N-[(5Z)-2-tert-butyl-4-(2-ethylcyclopropyl)isothiazol-5(2H)-ylidene]-5-chloro-2-methoxybenzamide] as the compound, how does the Ki (human CB2 receptors; [1]) read?
The Ki was 240 nM.

What about the Ki (rat CB2) of the same compound?
The Ki was 23 nM.

With `COc1ccc(Cl)cc1C(=O)/N=c1\sn(C(C)(C)C)cc1C(O)c1ccccc1` (centres unmarked) [Example 31, N-[(5Z)-2-tert-butyl-4-[hydroxy(phenyl)methyl]isothiazol-5(2H)-ylidene]-5-chloro-2-methoxybenzamide] as the compound, how does the Ki (human CB2 receptors) read?
The Ki was 63 nM.

What about the Ki (rat CB2) of the same compound?
The Ki was 5.8 nM.

`COc1ccc(Cl)cc1C(=O)/N=c1\sn(C(C)(C)C)cc1CN=[N+]=[N-]` [Example 32, N-[(5Z)-4-(azidomethyl)-2-tert-butylisothiazol-5(2H)-ylidene]-5-chloro-2-methoxybenzamide] was tested. Which Ki (human CB2 receptors) did it give?
The Ki was 170 nM.

And the Ki (rat CB2)?
The Ki was 20 nM.

`COc1ccc(Cl)cc1C(=O)/N=c1\sn(C(C)(C)C)cc1C(O)CC1CCC1` (centres unmarked) [Example 33, N-[(5Z)-2-tert-butyl-4-(2-cyclobutyl-1-hydroxyethyl)isothiazol-5(2H)-ylidene]-5-chloro-2-methoxybenzamide] was tested. Which Ki (human CB2 receptors) did it give?
Its Ki is 3.7 nM.

And the Ki (rat CB2)?
The Ki was 1 nM.

How did the Ki (human CB2 receptors) turn out when `COc1ccc(Cl)cc1C(=O)/N=c1\sn(C(C)(C)C)cc1Cc1ccccc1` [Example 35, N-[(5Z)-4-benzyl-2-tert-butylisothiazol-5(2H)-ylidene]-5-chloro-2-methoxybenzamide] was run?
Its Ki is 9.1 nM.

And the Ki (rat CB2)?
The Ki was 1.1 nM.

With `COc1ccc(Cl)cc1C(=O)/N=c1\sn(C(C)(C)C)cc1C(O)c1cccs1` (centres unmarked) [Example 44, N-[(5Z)-2-tert-butyl-4-[hydroxy(thien-2-yl)methyl]isothiazol-5(2H)-ylidene]-5-chloro-2-methoxybenzamide] as the compound, how does the Ki (human CB2 receptors) read?
Its Ki is 27 nM.

And the Ki (rat CB2)?
Its Ki is 2.1 nM.

What does the source list for `COC(=O)CCCc1cn(C(C)(C)C)s/c1=N\C(=O)c1cc(Cl)ccc1OC` [Example 45, Methyl 4-{(5Z)-2-tert-butyl-5-[(5-chloro-2-methoxybenzoyl)imino]-2,5-dihydroisothiazol-4-yl}butanoate]?
Ki (human CB2 receptors; [1]): 120 nM; Ki (rat CB2): 5.6 nM

Which Ki (human CB2 receptors) does the source give for `CCCCc1cn(C(C)(C)C)s/c1=N\C(=O)c1cc(Cl)ccc1OCC(F)(F)F` [Example 47, N-[(5Z)-4-butyl-2-tert-butylisothiazol-5(2H)-ylidene]-5-chloro-2-(2,2,2-trifluoroethoxy)benzamide] here?
Its Ki is 7.3 nM.

What about the Ki (rat CB2) of the same compound?
Its Ki is 1.8 nM.

What does the source list for `COc1ccc(C#N)cc1C(=O)/N=c1\sn(C(C)(C)C)cc1Cc1cccs1` [Example 53, N-[(5Z)-2-tert-butyl-4-(thien-2-ylmethyl)isothiazol-5(2H)-ylidene]-5-cyano-2-methoxybenzamide]?
Ki (human CB2 receptors): 59 nM; Ki (rat CB2): 2.6 nM

With `COc1ccc(Cl)cc1C(=O)/N=c1\sn(C(C)(C)C)cc1Cc1cccs1` [Example 54, N-[(5Z)-2-tert-butyl-4-(thien-2-ylmethyl)isothiazol-5(2H)-ylidene]-5-chloro-2-methoxybenzamide] as the compound, how does the Ki (human CB2 receptors) read?
The Ki was 17 nM.

What about the Ki (rat CB2) of the same compound?
Its Ki is 1 nM.

What does the source list for `CCCCc1cn(C(C)(C)C)s/c1=N\C(=O)c1cc(C=NOC)ccc1OC` [Example 57, N-[(5Z)-4-butyl-2-tert-butylisothiazol-5(2H)-ylidene]-2-methoxy-5-[(methoxyimino)methyl]benzamide]?
Ki (human CB2 receptors; [1]): 190 nM; Ki (rat CB2): 18 nM

How did the Ki (human CB2 receptors) turn out when `CCCCc1cn(C(C)(C)C)s/c1=N\C(=O)c1cc(I)ccc1OC` [Example 61, N-[(5Z)-4-butyl-2-tert-butylisothiazol-5(2H)-ylidene]-5-iodo-2-methoxybenzamide] was run?
The Ki was 7.6 nM.

What about the Ki (rat CB2) of the same compound?
Its Ki is 0.51 nM.

How did the Ki (human CB2 receptors) turn out when `C#Cc1ccc(OC)c(C(=O)/N=c2\sn(C(C)(C)C)cc2CCCC)c1` [Example 62, N-[(5Z)-4-butyl-2-tert-butylisothiazol-5(2H)-ylidene]-5-ethynyl-2-methoxybenzamide] was run?
Its Ki is 27 nM.

What about the Ki (rat CB2) of the same compound?
Its Ki is 3.1 nM.

`CCCCc1cn(C(C)(C)C)s/c1=N\C(=O)c1cc(OC(F)(F)F)ccc1OC` [Example 63, N-[(5Z)-4-butyl-2-tert-butylisothiazol-5(2H)-ylidene]-2-methoxy-5-(trifluoromethoxy)benzamide] was tested. Which Ki (human CB2 receptors) did it give?
Its Ki is 33 nM.

What about the Ki (rat CB2) of the same compound?
The Ki was 3.4 nM.

`CCCCc1cn(C(C)(C)C)s/c1=N\C(=O)c1cc(CF)ccc1OC` [Example 66, N-[(5Z)-4-butyl-2-tert-butylisothiazol-5(2H)-ylidene]-5-(fluoromethyl)-2-methoxybenzamide] was tested. Which Ki (human CB2 receptors; [1]) did it give?
The Ki was 103 nM.

What about the Ki (rat CB2) of the same compound?
The Ki was 12 nM.

What does the source list for `CC(C)(C)n1cc(Cc2ccco2)/c(=N/C(=O)c2cccc(C(F)(F)F)c2F)s1` [Example 70, N-[(5Z)-2-tert-butyl-4-(2-furylmethyl)isothiazol-5(2H)-ylidene]-2-fluoro-3-(trifluoromethyl)benzamide]?
Ki (human CB2 receptors): 34 nM; Ki (rat CB2): 4.2 nM

What does the source list for `CCCCc1cn(C(C)(C)C)s/c1=N\C(=O)c1cc(C(C)C)ccc1OC` [Example 82, N-[(5Z)-4-butyl-2-tert-butylisothiazol-5(2H)-ylidene]-5-isopropyl-2-methoxybenzamide]?
Ki (human CB2 receptors; [1]): 160 nM; Ki (rat CB2): 15 nM

Which results are given for `COc1ccc(Cl)cc1C(=O)/N=c1\sn(C(C)(C)C)cc1COC[C@H]1CCCO1` [Example 89, N-[(5Z)-2-tert-butyl-4-{[(2R)-tetrahydrofuran-2-ylmethoxy]methyl}isothiazol-5(2H)-ylidene]-5-chloro-2-methoxybenzamide]?
Ki (human CB2 receptors; [1]): 190 nM; Ki (rat CB2): 7.9 nM

Which Ki (human CB2 receptors; [1]) does the source give for `COc1ccc(Cl)cc1C(=O)/N=c1\sn(C(C)(C)C)cc1COCCF` [Example 90, N-[(5Z)-2-tert-butyl-4-[(2-fluoroethoxy)methyl]isothiazol-5(2H)-ylidene]-5-chloro-2-methoxybenzamide] here?
The Ki was 280 nM.

And the Ki (rat CB2)?
Its Ki is 27 nM.

Which Ki (human CB2 receptors) does the source give for `CCCCc1cn(C(C)(C)C)s/c1=N\C(=O)C1(c2ccc(F)cc2Cl)CCCCC1` [Example 95, N-[(5Z)-4-butyl-2-tert-butylisothiazol-5(2H)-ylidene]-1-(2-chloro-4-fluorophenyl)cyclohexanecarboxamide] here?
Its Ki is 7.5 nM.

And the Ki (rat CB2)?
Its Ki is 2.3 nM.

For `CCCCc1cn(C(C)(C)C)s/c1=N\C(=O)C1(c2ccccc2)CCCC1` [Example 98, N-[(5Z)-4-butyl-2-tert-butylisothiazol-5(2H)-ylidene]-1-phenylcyclopentanecarboxamide], which Ki (human CB2 receptors) is on record?
The Ki was 10 nM.

And the Ki (rat CB2)?
Its Ki is 4.8 nM.

For `CCCCc1cn(C(C)(C)C)s/c1=N\C(=O)C12CCC(C(=O)OC)(CC1)CC2` [Example 108, Methyl 4-({[(5Z)-4-butyl-2-tert-butylisothiazol-5(2H)-ylidene]amino}carbonyl)bicyclo[2.2.2]octane-1-carboxylate], which Ki (human CB2 receptors; [1]) is on record?
Its Ki is 180 nM.

What about the Ki (rat CB2) of the same compound?
The Ki was 13 nM.

With `CCCCc1cn(C(C)(C)C)s/c1=N\S(=O)(=O)c1cc(Cl)ccc1OC` [Example 115, N-[(5Z)-4-butyl-2-tert-butylisothiazol-5(2H)-ylidene]-5-chloro-2-methoxybenzenesulfonamide] as the compound, how does the Ki (human CB2 receptors) read?
The Ki was 53 nM.

And the Ki (rat CB2)?
Its Ki is 33 nM.

Which Ki (human CB2 receptors; [1]) does the source give for `CCCCc1cn(C(C)(C)C)s/c1=N\S(=O)(=O)c1ccccc1` [Example 119, N-[(5Z)-4-butyl-2-tert-butylisothiazol-5(2H)-ylidene]benzenesulfonamide] here?
The Ki was 170 nM.

And the Ki (rat CB2)?
The Ki was 33 nM.

With `CCCCc1cn(C(C)(C)C)s/c1=N\C(=O)c1cc(C#N)ccc1OCC(F)(F)F` [Example 130, N-[(5Z)-4-butyl-2-tert-butylisothiazol-5(2H)-ylidene]-5-cyano-2-(2,2,2-trifluoroethoxy)benzamide] as the compound, how does the Ki (human CB2 receptors) read?
Its Ki is 81 nM.

And the Ki (rat CB2)?
Its Ki is 2.8 nM.

What does the source list for `COc1ccc(Cl)cc1C(=O)/N=c1\sn(C(C)(C)C)c(C)c1NC(=O)OC(C)(C)C` [Example 162, Tert-butyl [(5Z)-2-tert-butyl-5-{[(5-chloro-2-methoxyphenyl)carbonyl]imino}-3-methyl-2,5-dihydroisothiazol-4-yl]carbamate]?
Ki (human CB2 receptors; [1]): 120 nM; Ki (rat CB2): 47 nM
